Measurements published in patent US12098145B2 (Libra Therapeutics, Inc., priority 2022, dated 2024).
pEC50: −log10 of the molar value. Where two headings read alike, the source gives them in different places.

Key:
[1] = target: T1, TRPML1 (Homo sapiens, UniProt Q9GZU1); experiment: Cellular TRPML1 assay (FLIPR, GCaMP6f calcium read-out); type: cell-based; conditions: for EC50: HEKT-REx/GCaMP6f/TRPML1 cells, FLIPR TETRA, kinetic response over 300 seconds, read-out: TRPML1 FLIPR pEC50 (converted)
T1 construct: expressed in transfected cells; host or cells: HEK T-REx cells stably expressing GCaMP6f and TRPML1
Method in brief: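 HEK T-REx cells stably expressing TRPML1 and GCaMP6f, seeded 24 h before in Optimem + 0.5% FBS. After ~10 min pre-incubation at room temperature, compounds in Ca2+-free Tyrode's buffer were injected on FLIPR Tetra (final DMSO 0.5%). Calcium fluorescence kinetics followed for 300 s.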

[2] = test system: TFEB; experiment: TFEB translocation assay (TFEB reporter in U2OS cells, imaging); type: cell-based; conditions: Homo sapiens; U2OS cell line with TFEB reporter, 2 hours incubation, nucleus to cytoplasm ratio, normalized to Torin-1; read-out: TFEB Translocation pEC50 (converted)
Procedure: Example B: TFEB Translocation Assay
Reporter TFEB: the reporter is fused to a sequence of monomeric red fluorescent protein.
The reporter TFEB have been stably expressed in U2OS cell line and used as read-out.
Experiments were performed in 384 MTP well format. Cells were seeded in 384-w at a density of 4000 cells/well in 20 μl/well complete growth medium without antibiotics. Twenty-four hours later, cells were treated with compounds and incubated for further 2 hours. Then the cells were imaged and assayed for the response to various compounds using the reporter for TFEB expressed in the cells as readout.
The experiments were performed in a 384-well format according to the following procedure: • 24 h after seeding, cell culture medium was carefully removed and replaced with 20 μl of Opti-MEM (30′ incubation at 37° C. before compound addition) • Then, cells were incubated with compounds diluted in Opti-MEM+0.015% Tween 80 at the desired concentration, with the reference molecule (agonist) Torin-1 at a top concentration of 1 μM (max signal), and with the other reference molecule (agonist) MLSA-5 at top concentration of 20 μM for 2 hours at 37° C. and 5% CO2. The final percentage of DMSO was 0.5% in all the conditions. • Staining of the nuclei was obtained by incubating the cells with 24 μM/well of Hoechst 3342 in standard Tyrode's buffer for 15 min at RT • Then the cells were fixed with PFA 4% for 30 min at RT • After three washes with standard Tyrode's buffer, samples were acquired by recording two fluorescence emission channels (DS-red and blue) at 20× magnification and with at least 3 fields of view per well in an Operetta CLS microscope (PerkinElmer). • Image analysis was performed by using Harmony software (PerkinElmer). The image analysis involved the following steps: flat-field illumination correction, nuclei segmentation, cytoplasm segmentation and calculation of intensity fluorescence in the cytosol and nuclei compartments. Measurements of signal intensity ratio (nucleus to cytoplasm) was used to obtain information on the effects of compounds on the TFEB translocation. • Data from image analysis measurements were finally loaded and analyzed for normalization and fitting procedures in Genedata Screener© software. Data Analysis
Feature: Mean translocation ratio (mean/well)
Data normalization: Stimulator—Neutral control
The GeneData Screener method we have used, normalizes the median of the Stimulator control wells (Torin-1) to 100% and the median of the Neutral control wells (DMSO) to 0% Activity[%]=100*(x−<Min>)/(<“Max”>−<Min>)

T1 sequence (Q9GZU1 whole entry): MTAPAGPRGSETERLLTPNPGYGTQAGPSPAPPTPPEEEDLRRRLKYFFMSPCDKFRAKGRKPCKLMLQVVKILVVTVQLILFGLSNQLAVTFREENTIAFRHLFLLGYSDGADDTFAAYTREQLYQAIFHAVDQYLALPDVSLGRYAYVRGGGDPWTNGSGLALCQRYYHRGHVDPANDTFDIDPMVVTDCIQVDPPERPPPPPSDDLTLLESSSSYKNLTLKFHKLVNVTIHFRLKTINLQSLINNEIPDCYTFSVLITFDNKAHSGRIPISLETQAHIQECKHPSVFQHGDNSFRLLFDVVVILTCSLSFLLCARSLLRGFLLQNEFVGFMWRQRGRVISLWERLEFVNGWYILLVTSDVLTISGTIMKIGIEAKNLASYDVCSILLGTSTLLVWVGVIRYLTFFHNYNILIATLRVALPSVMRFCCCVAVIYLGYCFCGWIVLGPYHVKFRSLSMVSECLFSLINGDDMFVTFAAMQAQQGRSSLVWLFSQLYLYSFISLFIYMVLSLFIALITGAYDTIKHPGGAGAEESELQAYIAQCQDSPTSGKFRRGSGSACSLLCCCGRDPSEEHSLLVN

Structure (SMILES) | EC50 [1] [nM] | EC50 [2] [nM] | pEC50 [1]
O=C(Nc1ccc(N2CCCCC2)c(C(F)(F)F)c1)c1nc(N2CC3(C2)CC(F)(F)C3)oc1CC(F)(F)F [Example 78, 2-{6,6-difluoro-2-azaspiro[3.3]heptan-2-yl}-N-[4-(piperidin-1-yl)-3-(trifluoromethyl)phenyl]-5-(2,2,2-trifluoroethyl)oxazole-4-carboxamide] | 1000 to 10000 | 1000 to 10000 | 
CN(c1ccc(NC(=O)c2nc(N3CCCC3)oc2CC(F)(F)F)cc1F)C1CCCC1(F)F (stereo not shown) [Example 82, N-{4-[(2,2-difluorocyclopentyl)(methyl)amino]-3-fluorophenyl}-2-(pyrrolidin-1-yl)-5-(2,2,2-trifluoroethyl)oxazole-4-carboxamide] | 1000 to 10000 | 10 to 1000 | 
CCc1oc(N2CC(C)(C)C2)nc1C(=O)Nc1cc(F)c(N2CC3CC(C3)C2)c(F)c1 [Example 256, N-(4-(3-azabicyclo[3.1.1]heptan-3-yl)-3,5-difluorophenyl)-2-(3,3-dimethylazetidin-1-yl)-5-ethyloxazole-4-carboxamide] |  | 10 to 1000 | 6.00 to 8.00
CCc1oc(N2CCCC2)nc1C(=O)Nc1cc(F)c(N2CC3CC(C3)C2)c(F)c1 [Example 255, N-(4-(3-azabicyclo[3.1.1]heptan-3-yl)-3,5-difluorophenyl)-5-ethyl-2-(pyrrolidin-1-yl)oxazole-4-carboxamide] |  | 10 to 1000 | 6.00 to 8.00
O=C(Nc1ccc(OC2CCCC2(F)F)c(F)c1)c1nc(N2CCC3(CCOC3)C2)oc1CC(F)(F)F (stereo not shown) [Example 13, N-(4-((2,2-difluorocyclopentyl)oxy)-3-fluorophenyl)-2-(2-oxa-7-azaspiro[4.4]nonan-7-yl)-5-(2,2,2-trifluoroethyl)oxazole-4-carboxamide] | 1000 to 10000 | 1000 to 10000 | 
O=C(Nc1ccc(N2CCCCC2)c(F)c1)c1nc(N2CCC3(C2)CC(F)(F)C3)oc1CC(F)(F)F [Example 28, 2-(2,2-difluoro-6-azaspiro[3.4]octan-6-yl)-N-(3-fluoro-4-(piperidin-1-yl)phenyl)-5-(2,2,2-trifluoroethyl)oxazole-4-carboxamide] | 1000 to 10000 | 1000 to 10000 | 
O=C(Nc1cc(F)c(OC2CC3C[C@H]3C2)c(F)c1)c1nc(N2CC3(CCOC3)C2)oc1CC(F)(F)F (stereo partly drawn) [Example 189, N-(4-(cis-bicyclo[3.1.0]hexan-3-yloxy)-3,5-difluorophenyl)-2-(6-oxa-2-azaspiro[3.4]octan-2-yl)-5-(2,2,2-trifluoroethyl)oxazole-4-carboxamide] |  | 10 to 1000 | 
Cc1oc(N2CCC3(CC3)C2)nc1C(=O)Nc1ccc(N2CCCCC2)c(F)c1 [Example 91, N-(3-fluoro-4-(piperidin-1-yl)phenyl)-5-methyl-2-(5-azaspiro[2.4]heptan-5-yl)oxazole-4-carboxamide] | 1000 to 10000 | 1000 to 10000 | 
CCc1oc(N2CC(C)(OC)C2)nc1C(=O)Nc1cc(C)c(OC2CC3C[C@H]3C2)c(F)c1 (stereo partly drawn) [Example 226, N-(4-(cis-bicyclo[3.1.0]hexan-3-yloxy)-3-fluoro-5-methylphenyl)-5-ethyl-2-(3-methoxy-3-methylazetidin-1-yl)oxazole-4-carboxamide] |  | 10 to 1000 | 
O=C(Nc1cc(F)c(OC2CC3C[C@@H]3C2)c(F)c1)c1nc(N2CC3(CCOCC3)C2)oc1CC(F)(F)F (stereo partly drawn) [Example 188, N-(4-(cis-bicyclo[3.1.0]hexan-3-yloxy)-3,5-difluorophenyl)-2-(7-oxa-2-azaspiro[3.5]nonan-2-yl)-5-(2,2,2-trifluoroethyl)oxazole-4-carboxamide] |  | 10 to 1000 | 
CCCc1oc(N2CCCC2)nc1C(=O)Nc1cc(F)c(OC2CC3C[C@H]3C2)c(F)c1 (stereo partly drawn) [Example 274, N-(4-(cis-bicyclo[3.1.0]hexan-3-yloxy)-3,5-difluorophenyl)-5-propyl-2-(pyrrolidin-1-yl)oxazole-4-carboxamide] |  | 10 to 1000 | 
CCc1oc(N2CC(CC)(CO)C2)nc1C(=O)Nc1cc(F)c(OC2CC3C[C@H]3C2)c(Cl)c1 (stereo partly drawn) [Example 220, N-(4-(cis-bicyclo[3.1.0]hexan-3-yloxy)-3-chloro-5-fluorophenyl)-5-ethyl-2-(3-ethyl-3-(hydroxymethyl)azetidin-1-yl)oxazole-4-carboxamide] |  | 10 to 1000 | 
CCc1oc(N2CCCC2)nc1C(=O)Nc1cc(F)c(OC2CC3C[C@H]3C2)c(Cl)c1 (stereo partly drawn) [Example 222, N-(4-(cis-bicyclo[3.1.0]hexan-3-yloxy)-3-chloro-5-fluorophenyl)-5-ethyl-2-(pyrrolidin-1-yl)oxazole-4-carboxamide] |  | 10 to 1000 | 

Continued, in another order:

EC50 [1] [nM] | Structure (SMILES) | EC50 [2] [nM] | pEC50 [1]
10 to 1000 | CC1(C)CN(c2nc(C(=O)Nc3ccc(OC4CCCC4(F)F)c(F)c3)c(CC(F)(F)F)o2)C1 (stereo not shown) [Example 20, N-(4-((2,2-difluorocyclopentyl)oxy)-3-fluorophenyl)-2-(3,3-dimethylazetidin-1-yl)-5-(2,2,2-trifluoroethyl)oxazole-4-carboxamide] | 10 to 1000 | 
10 to 1000 | O=C(Nc1cc(F)c(O[C@@H]2C[C@@H]3C[C@@H]3C2)c(F)c1)c1nc(N2CCC23CCC3)oc1CC(F)(F)F [Example 170, N-(4-(cis-bicyclo[3.1.0]hexan-3-yloxy)-3,5-difluorophenyl)-2-(1-azaspiro[3.3]heptan-1-yl)-5-(2,2,2-trifluoroethyl)oxazole-4-carboxamide] | 10 to 1000 | 
10 to 1000 | O=C(Nc1ccc(OC2CCCCC2(F)F)c(F)c1)c1nc(N2CCCC2)oc1CC(F)(F)F (stereo not shown) [Example 76, N-{4-[(2,2-difluorocyclohexyl)oxy]-3-fluorophenyl}-2-(pyrrolidin-1-yl)-5-(2,2,2-trifluoroethyl)oxazole-4-carboxamide] | 10 to 1000 | 
10 to 1000 | CCC1(CC)CN(c2nc(C(=O)Nc3cc(F)c(O[C@@H]4C[C@@H]5C[C@@H]5C4)c(F)c3)c(CCF)o2)C1 [Example 287, N-(4-(cis-bicyclo[3.1.0]hexan-3-yloxy)-3,5-difluorophenyl)-2-(3,3-diethylazetidin-1-yl)-5-(2-fluoroethyl)oxazole-4-carboxamide] | 10 to 1000 | 
10 to 1000 | O=C(Nc1cc(F)c(O[C@@H]2C[C@@H]3C[C@@H]3C2)c(F)c1)c1nc(N2CCCC2)oc1CC(F)(F)F [Example 39, N-(4-(cis-bicyclo[3.1.0]hexan-3-yloxy)-3,5-difluorophenyl)-2-(pyrrolidin-1-yl)-5-(2,2,2-trifluoroethyl)oxazole-4-carboxamide] | 10 to 1000 | 
10 to 1000 | CCN(C)Cc1oc(N2CC(CC)(OC)C2)nc1C(=O)Nc1cc(F)c(O[C@@H]2C[C@@H]3C[C@@H]3C2)c(F)c1 [Example 304, N-(4-(cis-bicyclo[3.1.0]hexan-3-yloxy)-3,5-difluorophenyl)-5-((ethyl(methyl)amino)methyl)-2-(3-ethyl-3-methoxyazetidin-1-yl)oxazole-4-carboxamide] | 10 to 1000 | 
10 to 1000 | CCc1oc(N2CC(C)(OC)C2)nc1C(=O)Nc1ccc(O[C@@H]2C[C@@H]3C[C@@H]3C2)c(Cl)c1 [Example 249, N-(4-(cis-bicyclo[3.1.0]hexan-3-yloxy)-3-chlorophenyl)-5-ethyl-2-(3-methoxy-3-methylazetidin-1-yl)oxazole-4-carboxamide] | 10 to 1000 | 
10 to 1000 | O=C(Nc1cc(F)c(O[C@@H]2C[C@@H]3C[C@@H]3C2)c(F)c1)c1nc(N2CCC3(CC3)C2)oc1CCF [Example 288, N-(4-(cis-bicyclo[3.1.0]hexan-3-yloxy)-3,5-difluorophenyl)-5-(2-fluoroethyl)-2-(5-azaspiro[2.4]heptan-5-yl)oxazole-4-carboxamide] | 10 to 1000 | 
10 to 1000 | CCC1(CC)CN(c2nc(C(=O)Nc3cc(O)c(OC4CC5CC(C5)C4)c(F)c3)c(CC(F)(F)F)o2)C1 (stereo not shown) [Example 264, N-(4-(bicyclo[3.1.1]heptan-3-yloxy)-3-fluoro-5-hydroxyphenyl)-2-(3,3-diethylazetidin-1-yl)-5-(2,2,2-trifluoroethyl)oxazole-4-carboxamide] | 10 to 1000 | 
10 to 1000 | O=C(Nc1ccc(O[C@@H]2C[C@@H]3C[C@@H]3C2)c(F)c1)c1nc(N2CCC3(CC3)C2)oc1CC(F)(F)F [Example 75, 2-{5-azaspiro[2.4]heptan-5-yl}-N-(4-{cis-bicyclo[3.1.0]hexan-3-yloxy}-3-fluorophenyl)-5-(2,2,2-trifluoroethyl)oxazole-4-carboxamide] | 10 to 1000 | 
